# Laboratory results as given in patent US10093563B2, “Method for making chelating base product used in water-based systems” (Earth Science Laboratories, priority 2015, dated 2018).
# System: Cotton plants (Gossypium hirsutum L.)
# Experiment: foliar zinc micronutrient delivery to cotton plants
# Assay type: in vivo
# Conditions: for Carotenoids / Chlorophylls / Electron Transport Rate / Membrane Leakage: cotton leaf
# Source text: An illustrative example of micronutrient delivery is the delivery of zinc (Zn) complexed to the chelant detailed herein to growing plants via foliar application. In this example, the experiment design was a Randomized Complete Design of 4 treatments of 10 replications for each of five parameters: (1) total chlorophyll by measuring fluorescence, (2) total carotenoids by measuring absorbance following organic solvent extraction, (3) electron transport rate by measuring light absorption and fluorometry, (4) membrane leakage by measuring change in electrolyte concentrations, and (5) leaf tissue concentrations of zinc by digesting samples in nitric acid followed by atomic absorption spectrophotometry. Leaf samples were collected at weekly intervals after squaring. Cotton plants (Gossypium hirsutum L.) were grown in a climate controlled chamber on a 14/10 hour, 30/20° C. diurnal cycle, respectively. Individual plants were grown in 48, 3 liter pots containing nutrient deficient potting soil. Plants received identical treatment for nutrition and growth management until squaring. At squaring, the first round of measurements were made and treatments sprayed via a CO2 backpack sprayer with plants arranged in rows. Sprays were allowed to dry before returning to the climate controlled chamber to minimize cross contamination of treatments due to foliar contact. Plants were then grown for an additional two to three weeks with nutrients being supplied via zinc-free Hoagland's solution without added Zn for treatments: ESL-Zn (base product fluid solution), Zinc Sulfate, and Low Zinc. The elemental composition of Hoagland's solution is as follows: N 210 mg/L, K 235 mg/L, Ca 200 mg/L, P 31 mg/L, S 64 mg/L, Mg 48 mg/L, B 0.5 mg/L, Fe 1 to 5 mg/L, Mn 0.5 mg/L, Zn 0.05 mg/L, Cu 0.02 mg/L, and Mo 0.01 mg/L. The four treatments and descriptions were (1) “Control” (no foliar spray addition of Zn), (2) “Low Zn” (No foliar spray addition and the Zn concentration of the Hoagland's solution was reduced to 0.025 mg/L, (3) “ZnSO4” (Foliar spray equivalent of 1% solution [e.g., 8 lbs. of 36% ZnSO4 in 100 gallons H2O] at 15 gallons/acre, and (4) “ESL-Zn” (Foliar spray equivalent of 1% solution [e.g., 8 lbs. of 36% ZnSO4 in 100 gallons H2O] at 15 gallons/acre).
# [1] = week 1 (at squaring, measured before foliar spray)
# [2] = week 2, foliar spray equivalent of 1% solution at 15 gallons/acre
# [3] = week 3, foliar spray equivalent of 1% solution at 15 gallons/acre
structure (smiles),measurement,setting,value
"O=S(=O)([O-])[O-].[Zn+2] [ZnSO4, Zinc Sulfate]",Carotenoids,[1],1.713 μg carotenoids/mg dry weight
same,Chlorophylls,[1],11.88 μg pigments/mg dry weight
same,Electron Transport Rate,[1],71 μmol electrons m^−2 s^−
same,Membrane Leakage,[1],34.68%
same,Carotenoids,[2],2.322 μg carotenoids/mg dry weight
same,Chlorophylls,[2],12.67 μg pigments/mg dry weight
same,Electron Transport Rate,[2],70 μmol electrons m^−2 s^−
same,Membrane Leakage,[2],28.12%
same,Carotenoids,[3],1.559 μg carotenoids/mg dry weight
same,Chlorophylls,[3],10.72 μg pigments/mg dry weight
same,Electron Transport Rate,[3],68 μmol electrons m^−2 s^−
same,Membrane Leakage,[3],27.06%
same,Zn (leaf tissue concentration),[1],27.46 ppm or mg/L
same,Zn (leaf tissue concentration),[2],61.29 ppm or mg/L
same,Zn (leaf tissue concentration),[3],27.52 ppm or mg/L
